The source made the active and inactive calls. The rule behind the calls is not given here.

In the data set the test system is CCRIS mutagenicity, Ames/micronucleus/aberration tests. Put plainly: CCRIS mutagenicity studies.
The mark [1] stands for this setting: Test System: AMES SALMONELLA TYPHIMURIUM, Strain/Indicator: TA98, Metabolic Activation: NONE, Method: PREINCUBATION
Where [2] appears, read: Test System: AMES SALMONELLA TYPHIMURIUM, Strain/Indicator: TA100, Metabolic Activation: NONE, Method: PREINCUBATION
Setting [3] is: Test System: AMES SALMONELLA TYPHIMURIUM, Strain/Indicator: TA1535, Metabolic Activation: NONE, Method: PREINCUBATION
The mark [4] stands for this setting: Test System: AMES SALMONELLA TYPHIMURIUM, Strain/Indicator: TA1537, Metabolic Activation: NONE, Method: PREINCUBATION
[5] abbreviates: Test System: CHINESE HAMSTER V-79, Strain/Indicator: V-79/OUABAIN, Metabolic Activation: HAMSTER, HEPATOCYTES, Method: CELL-MEDIATED

Regarding `O=C(Cl)c1ccc(Cl)cc1`, the mutagenic call is “inactive; negative” under setting [1]; “inactive; negative” (Test System: AMES SALMONELLA TYPHIMURIUM, Strain/Indicator: TA98, Metabolic Activation: RAT LIVER S-9, PHENOBARBITAL AND BETA-NAPHTHOFLAVONE, Method: PREINCUBATION); “inactive; negative” under setting [2]; “inactive; negative” (Test System: AMES SALMONELLA TYPHIMURIUM, Strain/Indicator: TA100, Metabolic Activation: RAT LIVER S-9, PHENOBARBITAL AND BETA-NAPHTHOFLAVONE, Method: PREINCUBATION); “inactive; negative” (Test System: AMES SALMONELLA TYPHIMURIUM, Strain/Indicator: TA102, Metabolic Activation: NONE, Method: PREINCUBATION); “inactive; negative” (Test System: AMES SALMONELLA TYPHIMURIUM, Strain/Indicator: TA102, Metabolic Activation: RAT LIVER S-9, PHENOBARBITAL AND BETA-NAPHTHOFLAVONE, Method: PREINCUBATION). Further, the mutagenic call (Test System: AMES SALMONELLA TYPHIMURIUM, Strain/Indicator: TA104, Metabolic Activation: NONE, Method: PREINCUBATION) is “inactive; negative”; the mutagenic call (Test System: AMES SALMONELLA TYPHIMURIUM, Strain/Indicator: TA104, Metabolic Activation: RAT LIVER S-9, PHENOBARBITAL AND BETA-NAPHTHOFLAVONE, Method: PREINCUBATION) is “inactive; negative”; the mutagenic call under setting [3] was “inactive; negative”; the mutagenic call (Test System: AMES SALMONELLA TYPHIMURIUM, Strain/Indicator: TA1535, Metabolic Activation: RAT LIVER S-9, PHENOBARBITAL AND BETA-NAPHTHOFLAVONE, Method: PREINCUBATION) was “inactive; negative”; the mutagenic call under setting [4] was “inactive; negative”; the mutagenic call (Test System: AMES SALMONELLA TYPHIMURIUM, Strain/Indicator: TA1537, Metabolic Activation: RAT LIVER S-9, PHENOBARBITAL AND BETA-NAPHTHOFLAVONE, Method: PREINCUBATION) is “inactive; negative”. Besides, the mutagenic call was “inactive; negative” (Test System: E.COLI, Strain/Indicator: WP2UVRA/PKM101, Metabolic Activation: NONE, Method: PREINCUBATION); “inactive; negative” (Test System: E.COLI, Strain/Indicator: WP2UVRA/PKM101, Metabolic Activation: RAT LIVER S-9, PHENOBARBITAL AND BETA-NAPHTHOFLAVONE, Method: PREINCUBATION); “inactive; negative” (Test System: E.COLI, Strain/Indicator: WP2UVRA, Metabolic Activation: NONE, Method: PREINCUBATION); “inactive; negative” (Test System: E.COLI, Strain/Indicator: WP2UVRA, Metabolic Activation: RAT LIVER S-9, PHENOBARBITAL AND BETA-NAPHTHOFLAVONE, Method: PREINCUBATION).
Consider `CC1CN1P(=O)(N1CC1C)N1CC1C` (stereo unspecified), for which the mutagenic call (Test System: AMES SALMONELLA TYPHIMURIUM, Strain/Indicator: G46, Metabolic Activation: HOST MEDIATED, Method: STANDARD PLATE) is “active; positive”.
As to `O=S(=O)(O)O.[NH-]CC1(C[NH-])CCCCC1.[Pt+2]`, the mutagenic call (Test System: CHINESE HAMSTER, Strain/Indicator: V-79/6-THIOGUANINE (HGPRT), Metabolic Activation: NONE, Method: STANDARD PLATE) was “active; positive”.
Take `CCC(=O)CN(CC(=O)CC)N=O`: under setting [5], the mutagenic call is “active; positive”.
For the compound `COc1ccc2cc3c4c(cc(OC)c(OC)c4c2c1)CCN3C`, the mutagenic call (Test System: AMES SALMONELLA TYPHIMURIUM, Strain/Indicator: TA100, Metabolic Activation: RAT, LIVER, S-9, PHENOBARBITAL AND BETA-NAPHTHOFLAVONE, Method: PREINCUBATION) was “inactive; negative”.
As for `CN(N=O)C(C)(C)C`, the mutagenic call under setting [5] is “inactive; negative”.
For the compound `Nc1nc(-c2cccc([N+](=O)[O-])c2)nc2c1ncn2[C@@H]1O[C@H](CO)[C@@H](O)[C@H]1O`, the mutagenic call runs as follows: under setting [1], “inactive; negative”; (Test System: AMES SALMONELLA TYPHIMURIUM, Strain/Indicator: TA98, Metabolic Activation: RAT, LIVER, S-9, PCB, Method: PREINCUBATION) “inactive; negative”; under setting [2], “active; positive”; (Test System: AMES SALMONELLA TYPHIMURIUM, Strain/Indicator: TA100, Metabolic Activation: RAT, LIVER, S-9, PCB, Method: PREINCUBATION) “active; positive”.
`CCN1CCN(C(=O)N[C@@H](C(=O)N[C@@H]2C(=O)N3[C@@H]2SC(C)(C)[C@@H]3C(=O)O)c2ccccc2)C(=O)C1=O`: the mutagenic call was “inactive; negative” (Test System: AMES SALMONELLA TYPHIMURIUM, Strain/Indicator: TA98, Metabolic Activation: MOUSE, IN VIVO, Method: HOST-MEDIATED); “inactive; negative” under setting [1]; “inactive; negative” (Test System: AMES SALMONELLA TYPHIMURIUM, Strain/Indicator: TA98, Metabolic Activation: NONE, Method: STANDARD PLATE); “inactive; negative” (Test System: AMES SALMONELLA TYPHIMURIUM, Strain/Indicator: TA98, Metabolic Activation: RAT, LIVER, S-9, AROCLOR 1254, Method: STANDARD PLATE); “inactive; negative” (Test System: AMES SALMONELLA TYPHIMURIUM, Strain/Indicator: TA98, Metabolic Activation: S-9, Method: PREINCUBATION); “inactive; negative” (Test System: AMES SALMONELLA TYPHIMURIUM, Strain/Indicator: TA100, Metabolic Activation: MOUSE, IN VIVO, Method: HOST-MEDIATED). The mutagenic call is “inactive; negative” under setting [2]; “inactive; negative” (Test System: AMES SALMONELLA TYPHIMURIUM, Strain/Indicator: TA100, Metabolic Activation: NONE, Method: STANDARD PLATE); “inactive; negative” (Test System: AMES SALMONELLA TYPHIMURIUM, Strain/Indicator: TA100, Metabolic Activation: RAT, LIVER, S-9, AROCLOR 1254, Method: STANDARD PLATE); “inactive; negative” (Test System: AMES SALMONELLA TYPHIMURIUM, Strain/Indicator: TA100, Metabolic Activation: S-9, Method: PREINCUBATION); “inactive; negative” (Test System: AMES SALMONELLA TYPHIMURIUM, Strain/Indicator: TA1535, Metabolic Activation: MOUSE, IN VIVO, Method: HOST-MEDIATED); “inactive; negative” under setting [3]. The mutagenic call (Test System: AMES SALMONELLA TYPHIMURIUM, Strain/Indicator: TA1535, Metabolic Activation: NONE, Method: STANDARD PLATE) is “inactive; negative”; the mutagenic call (Test System: AMES SALMONELLA TYPHIMURIUM, Strain/Indicator: TA1535, Metabolic Activation: RAT, LIVER, S-9, AROCLOR 1254, Method: STANDARD PLATE) was “inactive; negative”; the mutagenic call (Test System: AMES SALMONELLA TYPHIMURIUM, Strain/Indicator: TA1535, Metabolic Activation: S-9, Method: PREINCUBATION) is “inactive; negative”; the mutagenic call (Test System: AMES SALMONELLA TYPHIMURIUM, Strain/Indicator: TA1537, Metabolic Activation: MOUSE, IN VIVO, Method: HOST-MEDIATED) was “inactive; negative”; the mutagenic call under setting [4] was “inactive; negative”; the mutagenic call (Test System: AMES SALMONELLA TYPHIMURIUM, Strain/Indicator: TA1537, Metabolic Activation: NONE, Method: STANDARD PLATE) is “inactive; negative”. Besides, the mutagenic call reads like this: (Test System: AMES SALMONELLA TYPHIMURIUM, Strain/Indicator: TA1537, Metabolic Activation: RAT, LIVER, S-9, AROCLOR 1254, Method: STANDARD PLATE) “inactive; negative”; (Test System: AMES SALMONELLA TYPHIMURIUM, Strain/Indicator: TA1537, Metabolic Activation: S-9, Method: PREINCUBATION) “inactive; negative”; (Test System: AMES SALMONELLA TYPHIMURIUM, Strain/Indicator: TA1538, Metabolic Activation: NONE, Method: STANDARD PLATE) “inactive; negative”; (Test System: AMES SALMONELLA TYPHIMURIUM, Strain/Indicator: TA1538, Metabolic Activation: RAT, LIVER, S-9, AROCLOR 1254, Method: STANDARD PLATE) “inactive; negative”; (Test System: E. COLI, Strain/Indicator: WP2 UVRA, Metabolic Activation: NONE, Method: PREINCUBATION) “inactive; negative”; (Test System: E. COLI, Strain/Indicator: WP2 UVRA, Metabolic Activation: NONE, Method: STANDARD PLATE) “inactive; negative”. Also, the mutagenic call is “inactive; negative” (Test System: E. COLI, Strain/Indicator: WP2 UVRA, Metabolic Activation: RAT, LIVER, S-9, AROCLOR 1254, Method: STANDARD PLATE) and “inactive; negative” (Test System: E. COLI, Strain/Indicator: WP2 UVRA, Metabolic Activation: S-9, Method: PREINCUBATION).

The values above are taken from PubChem BioAssay AID1259407 (Chemical Carcinogenesis Research Information System (CCRIS), 2018).
